Literature values in paper doi:10.1101/2025.04.01.646723v2 (bioRxiv, 2025).

System: N. benthamiana leaves
Settings: DCIP, 100 μM, at least 5 biological replicates, ref [15]

## nona-arginine [R9]
  cellular internalization (in words): efficiently internalized
